This passage reports % of control and % of inhibition results from ChEMBL document CHEMBL5465560, “Selectivity Literature for EUbOPEN Chemogenomic Library” (2024).

The structures appear in SMILES notation.

In experiment [1] the target is Tyrosine-protein kinase ABL2 (Homo sapiens, UniProt P42684). Description: Selectivity interaction (Kinase panel (Z-LYTE Assay)) EUB0001632a ABL2. The settings on record: at 10 µM.
The target of experiment [2] is T1, Myosin-IIIb (Homo sapiens) (UniProt Q8WXR4).
T1 sequence (whole entry): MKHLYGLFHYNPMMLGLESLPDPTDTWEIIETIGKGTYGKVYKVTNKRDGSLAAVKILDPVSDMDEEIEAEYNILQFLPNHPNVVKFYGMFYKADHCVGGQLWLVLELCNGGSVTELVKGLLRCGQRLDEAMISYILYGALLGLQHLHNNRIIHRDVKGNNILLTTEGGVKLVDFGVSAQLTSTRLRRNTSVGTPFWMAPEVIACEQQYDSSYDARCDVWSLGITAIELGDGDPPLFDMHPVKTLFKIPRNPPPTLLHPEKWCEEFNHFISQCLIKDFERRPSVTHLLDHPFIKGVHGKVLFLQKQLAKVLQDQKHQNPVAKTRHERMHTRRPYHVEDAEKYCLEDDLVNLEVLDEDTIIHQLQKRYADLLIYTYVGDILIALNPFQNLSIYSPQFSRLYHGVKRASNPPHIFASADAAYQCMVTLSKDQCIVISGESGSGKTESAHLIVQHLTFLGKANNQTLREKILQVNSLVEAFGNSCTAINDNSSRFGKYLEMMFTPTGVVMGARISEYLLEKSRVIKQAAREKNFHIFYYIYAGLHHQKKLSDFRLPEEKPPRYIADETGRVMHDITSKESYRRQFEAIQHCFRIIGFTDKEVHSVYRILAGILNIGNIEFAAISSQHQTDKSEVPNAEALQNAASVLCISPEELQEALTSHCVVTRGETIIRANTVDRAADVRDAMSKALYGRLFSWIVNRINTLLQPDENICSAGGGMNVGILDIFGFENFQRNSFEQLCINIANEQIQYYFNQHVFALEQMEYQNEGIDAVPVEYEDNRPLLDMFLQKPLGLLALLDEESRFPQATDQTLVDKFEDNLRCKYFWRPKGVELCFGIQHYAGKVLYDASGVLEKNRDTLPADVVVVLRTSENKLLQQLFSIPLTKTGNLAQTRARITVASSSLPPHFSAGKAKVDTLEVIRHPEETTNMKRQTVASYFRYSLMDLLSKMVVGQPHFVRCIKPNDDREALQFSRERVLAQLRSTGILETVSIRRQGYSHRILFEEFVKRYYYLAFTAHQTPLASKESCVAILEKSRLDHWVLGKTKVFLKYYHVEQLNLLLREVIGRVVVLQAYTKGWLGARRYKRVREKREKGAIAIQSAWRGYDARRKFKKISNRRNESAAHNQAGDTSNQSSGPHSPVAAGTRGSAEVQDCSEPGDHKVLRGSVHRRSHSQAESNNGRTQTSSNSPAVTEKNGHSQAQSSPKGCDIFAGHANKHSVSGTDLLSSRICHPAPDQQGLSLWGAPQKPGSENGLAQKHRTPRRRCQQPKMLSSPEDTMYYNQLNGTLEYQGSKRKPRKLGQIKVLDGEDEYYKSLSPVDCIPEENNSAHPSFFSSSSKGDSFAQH
Description: Selectivity interaction (Ambit KINOMEscan and KiNATiv profiling in Jurkat cells) EUB0000090b MYO3B. Conditions: at 1 µM. Format: cell-based.

Experiment [3] deals with T2, Membrane-associated tyrosine- and threonine-specific cdc2-inhibitory kinase (Homo sapiens) (UniProt Q99640).
T2 sequence (whole entry): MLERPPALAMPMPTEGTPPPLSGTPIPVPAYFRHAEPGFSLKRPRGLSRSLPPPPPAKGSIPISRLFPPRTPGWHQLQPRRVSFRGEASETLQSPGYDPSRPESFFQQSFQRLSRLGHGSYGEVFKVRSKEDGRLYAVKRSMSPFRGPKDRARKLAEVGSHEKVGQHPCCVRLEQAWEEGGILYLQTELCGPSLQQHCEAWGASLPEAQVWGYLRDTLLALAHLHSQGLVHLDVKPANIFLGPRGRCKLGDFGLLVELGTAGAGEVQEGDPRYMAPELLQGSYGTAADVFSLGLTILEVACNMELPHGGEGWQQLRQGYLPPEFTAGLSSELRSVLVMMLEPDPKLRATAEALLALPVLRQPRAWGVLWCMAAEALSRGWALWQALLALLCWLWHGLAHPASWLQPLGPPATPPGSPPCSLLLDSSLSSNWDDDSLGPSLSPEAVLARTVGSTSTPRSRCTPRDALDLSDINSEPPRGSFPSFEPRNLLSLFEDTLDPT
The settings on record: at 10 µM.

The target of experiment [4] is T3, Cytoplasmic tyrosine-protein kinase BMX (Homo sapiens) (UniProt P51813).
T3 sequence (whole entry): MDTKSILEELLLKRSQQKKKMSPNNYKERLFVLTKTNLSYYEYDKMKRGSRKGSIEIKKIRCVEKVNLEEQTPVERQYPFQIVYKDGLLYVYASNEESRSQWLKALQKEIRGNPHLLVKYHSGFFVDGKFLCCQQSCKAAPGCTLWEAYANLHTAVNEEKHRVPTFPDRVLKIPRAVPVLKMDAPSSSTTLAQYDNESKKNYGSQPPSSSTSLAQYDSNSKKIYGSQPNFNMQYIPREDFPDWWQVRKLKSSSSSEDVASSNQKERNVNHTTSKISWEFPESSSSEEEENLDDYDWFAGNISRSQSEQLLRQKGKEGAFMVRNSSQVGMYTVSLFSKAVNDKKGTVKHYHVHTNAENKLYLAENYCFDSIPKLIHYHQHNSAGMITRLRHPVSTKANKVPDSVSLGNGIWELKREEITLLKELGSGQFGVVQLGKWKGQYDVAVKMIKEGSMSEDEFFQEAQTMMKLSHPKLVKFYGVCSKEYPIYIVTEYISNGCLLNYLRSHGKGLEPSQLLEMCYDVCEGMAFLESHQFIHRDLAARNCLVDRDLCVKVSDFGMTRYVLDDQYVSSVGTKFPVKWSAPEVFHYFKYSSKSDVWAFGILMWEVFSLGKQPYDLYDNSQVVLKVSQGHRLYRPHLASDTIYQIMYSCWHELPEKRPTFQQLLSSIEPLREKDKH
Description: Selectivity interaction (KinaseProfiler screening (Millipore)) EUB0000601a BMX. Conditions: at 3 µM.

Experiment [5] addresses T4, Mitogen-activated protein kinase 12 (Homo sapiens) (UniProt P53778).
T4 sequence (whole entry): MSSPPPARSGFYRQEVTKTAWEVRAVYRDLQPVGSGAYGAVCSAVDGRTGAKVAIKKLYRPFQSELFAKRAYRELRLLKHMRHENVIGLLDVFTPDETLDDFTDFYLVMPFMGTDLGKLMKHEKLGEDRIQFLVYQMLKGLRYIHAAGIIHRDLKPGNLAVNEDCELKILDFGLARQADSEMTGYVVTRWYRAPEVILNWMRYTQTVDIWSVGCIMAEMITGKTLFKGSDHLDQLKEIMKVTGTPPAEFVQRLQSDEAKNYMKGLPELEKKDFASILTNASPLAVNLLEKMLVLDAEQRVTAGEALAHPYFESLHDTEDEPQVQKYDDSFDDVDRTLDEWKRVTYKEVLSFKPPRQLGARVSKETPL
Description: Selectivity interaction (KinomeScan (DiscoverX)) EUB0000092b MAPK12. Conditions: at 10 µM.

Chain of Tyrosine-protein kinase ABL2 (P42684 whole entry): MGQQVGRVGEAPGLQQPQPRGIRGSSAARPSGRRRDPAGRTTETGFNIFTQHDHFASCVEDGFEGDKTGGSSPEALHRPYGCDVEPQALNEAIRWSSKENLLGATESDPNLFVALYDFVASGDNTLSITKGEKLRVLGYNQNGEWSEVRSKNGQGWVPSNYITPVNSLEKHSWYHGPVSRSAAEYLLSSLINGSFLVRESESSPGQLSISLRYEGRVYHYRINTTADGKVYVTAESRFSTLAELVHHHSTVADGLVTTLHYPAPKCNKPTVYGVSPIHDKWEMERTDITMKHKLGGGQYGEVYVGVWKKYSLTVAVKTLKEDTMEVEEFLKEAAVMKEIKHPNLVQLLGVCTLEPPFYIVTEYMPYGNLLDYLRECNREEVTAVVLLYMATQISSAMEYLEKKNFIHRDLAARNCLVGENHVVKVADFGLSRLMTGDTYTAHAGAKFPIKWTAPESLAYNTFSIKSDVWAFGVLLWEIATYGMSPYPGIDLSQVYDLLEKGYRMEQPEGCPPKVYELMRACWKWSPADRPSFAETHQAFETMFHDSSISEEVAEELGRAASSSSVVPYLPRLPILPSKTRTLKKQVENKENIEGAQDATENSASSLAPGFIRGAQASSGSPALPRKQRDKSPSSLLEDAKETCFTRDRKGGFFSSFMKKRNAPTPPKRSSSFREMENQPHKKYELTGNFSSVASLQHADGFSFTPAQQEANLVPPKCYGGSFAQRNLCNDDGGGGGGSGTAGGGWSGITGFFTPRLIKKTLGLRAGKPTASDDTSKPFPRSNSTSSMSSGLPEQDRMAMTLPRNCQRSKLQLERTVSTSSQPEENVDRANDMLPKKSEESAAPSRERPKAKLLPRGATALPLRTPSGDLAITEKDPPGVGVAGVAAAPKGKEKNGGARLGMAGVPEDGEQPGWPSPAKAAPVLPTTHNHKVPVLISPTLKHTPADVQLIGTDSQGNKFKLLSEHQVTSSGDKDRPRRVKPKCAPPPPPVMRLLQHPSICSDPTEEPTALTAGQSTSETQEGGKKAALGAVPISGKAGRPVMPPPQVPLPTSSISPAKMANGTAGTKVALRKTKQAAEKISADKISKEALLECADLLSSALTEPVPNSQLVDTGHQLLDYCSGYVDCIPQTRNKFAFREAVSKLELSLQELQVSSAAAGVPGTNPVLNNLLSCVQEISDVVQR

`Cn1cc(-n2cnc3c(NCc4nc5cc(Cl)c(Cl)cc5[nH]4)nc(N4CCOCC4)nc32)cn1` yielded a % of control in experiment [1] of 6.33%.

`CN(C)C/C=C/C(=O)Nc1ccc(C(=O)N2CCCC(Nc3ncc(Cl)c(-c4c[nH]c5ccccc45)n3)C2)cc1` (stereo not given): the % of control in experiment [2] was found to be 100%.

In experiment [3], `Cc1cc([C@@H](C)Nc2ccccc2C(=O)O)c2nc(N3CCOCC3)cc(=O)n2c1` [AZD-6482] yielded a % of control of 100%.

Turning to `CCc1cc(Nc2nccc(-c3c(-c4ccc(OC)c(C(=O)Nc5c(F)cccc5F)c4)nc4ccccn34)n2)c(OC)cc1N1CCC(N2CCN(S(C)(=O)=O)CC2)CC1`, the % of inhibition in experiment [4] was 71%.

Regarding `CCC(=O)N1CCN(c2ccc(-n3c(=O)ccc4cnc5ccc(-c6cnc7ccccc7c6)cc5c43)cc2C(F)(F)F)CC1`, the % of control in experiment [5] is 71%.
